Measured values as given in US8378117B2 (priority 2005, dated 2013).
Like-named read-outs stand apart in the source and are kept apart here.

Assays:
CB1 receptor = target: T1, CB1 receptor (Homo sapiens, UniProt P21554); experiment: Binding assay for CB1 agonists or inverse agonists (SK-N-MC membranes, [3H]-CP-55,940); conditions: for inhibition at 0.2 µM: read-out: CB1 receptor binding percent inhibition, test concentration 0.2 μM (footnote 2); for inhibition at 1 µM: read-out: CB1 receptor binding percent inhibition, test concentration 1 μM (footnote 1)
T1 construct: expressed in transfected cells
In short: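 Membranes from SK-N-MC cells stably expressing human CB1 incubated with compound and [3H]-CP-55,940 ([…]) for 90 min at 30° C in Tris-HCl pH 7.5, MgCl2, EDTA, fatty-acid-free BSA. Non-specific binding defined with 10 uM WIN 55,212; filtration, scintillation count; IC50 by linear regression.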

CB2 receptor = target: T2, CB2 receptor (Homo sapiens, UniProt P34972); experiment: Binding assay for CB2 agonists or inverse agonists (SK-N-MC membranes, [3H]-CP-55,940); conditions: for CB2 receptor binding percent inhibition: test concentration not stated
T2 construct: expressed in transfected cells
In short: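 Membranes from SK-N-MC cells stably expressing human CB2 were incubated with radioligand and test compounds for 90 min at 30 °C in Tris-HCl buffer, pH 7.5, with MgCl2, EDTA and fatty-acid-free BSA. Filter-bound radioactivity was counted; IC50 was derived by linear regression of percent inhibition.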

[1] = test concentration 0.2 μM (footnote 2), read-out: CB2 receptor binding percent inhibition

T2 sequence (P34972 whole entry): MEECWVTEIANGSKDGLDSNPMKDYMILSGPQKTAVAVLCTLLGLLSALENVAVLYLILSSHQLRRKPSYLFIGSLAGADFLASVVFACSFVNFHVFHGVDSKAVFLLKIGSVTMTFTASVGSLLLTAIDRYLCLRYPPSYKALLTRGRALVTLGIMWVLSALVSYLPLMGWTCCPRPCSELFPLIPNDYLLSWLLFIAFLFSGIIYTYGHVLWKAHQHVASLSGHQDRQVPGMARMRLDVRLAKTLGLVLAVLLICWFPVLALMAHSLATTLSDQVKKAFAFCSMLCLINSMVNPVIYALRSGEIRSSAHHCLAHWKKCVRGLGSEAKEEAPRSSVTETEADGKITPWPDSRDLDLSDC
T1 sequence (P21554 whole entry): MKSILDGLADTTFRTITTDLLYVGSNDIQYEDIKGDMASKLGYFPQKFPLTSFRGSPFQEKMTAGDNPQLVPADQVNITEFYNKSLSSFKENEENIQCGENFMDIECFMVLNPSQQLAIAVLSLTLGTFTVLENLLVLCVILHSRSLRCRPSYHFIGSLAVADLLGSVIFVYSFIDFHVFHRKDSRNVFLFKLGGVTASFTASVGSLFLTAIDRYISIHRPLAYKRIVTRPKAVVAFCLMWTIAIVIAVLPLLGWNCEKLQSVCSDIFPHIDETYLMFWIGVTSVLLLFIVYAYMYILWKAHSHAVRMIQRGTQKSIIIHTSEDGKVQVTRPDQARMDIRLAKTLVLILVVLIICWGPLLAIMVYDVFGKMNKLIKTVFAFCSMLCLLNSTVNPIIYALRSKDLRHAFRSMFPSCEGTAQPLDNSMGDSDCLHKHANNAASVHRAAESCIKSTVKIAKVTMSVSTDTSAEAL

In the case of `O=C(N[C@@H](CO)c1ccccc1)c1nn(-c2ccc(Cl)cc2Cl)c2c1CCCC/C2=C\c1ccc(F)cc1` [Cpd 203, (8E)-1-(2,4-dichloro-phenyl)-8-(4-fluoro-benzylidene)-1,4,5,6,7,8-hexahydro-cycloheptapyrazole-3-carboxylic acid [(1R)-2-hydroxy-1-phenyl-ethyl]-amide], the inhibition at 0.2 µM (CB1 receptor) is reported as 37% and the inhibition at 0.2 µM (CB2 receptor; read-out: CB2 receptor binding percent inhibition, test concentration 0.2 μM (footnote 2)) is reported as 30%.

With `O=C(N[C@@H](CO)c1ccccc1)c1nn(C2CCCCC2)c2c1CCCCC2Cc1ccc(F)cc1` (stereo in doubt) [Cpd 67, (8S*)-1-cyclohexyl-8-(4-fluoro-benzyl)-1,4,5,6,7,8-hexahydro-cycloheptapyrazole-3-carboxylic acid [(1R)-2-hydroxy-1-phenyl-ethyl]-amide] the inhibition at 1 µM (CB1 receptor) was 44% and the “CB2 receptor binding percent inhibition” value (CB2 receptor) was 55%.

`CC12CCC(C1)C(C)(C)[C@H]2NC(=O)c1nn(-c2ccc(Cl)cc2Cl)c2c1CCCCC2Cc1ccc(Cl)cc1` (stereo partly drawn) [Cpd 14, 8-(4-chloro-benzyl)-1-(2,4-dichloro-phenyl)-1,4,5,6,7,8-hexahydro-cycloheptapyrazole-3-carboxylic acid [(2S)-1,3,3-trimethyl-bicyclo[2.2.1]hept-2-yl]-amide] was tested, and the inhibition at 1 µM (CB1 receptor) was 29% and the “CB2 receptor binding percent inhibition” value (CB2 receptor) was 7%.

For `O=C(N[C@@H]1c2ccccc2C[C@@H]1O)c1nn(-c2ccc(F)cc2F)c2c1CCCCC2Cc1cccc(F)c1` (stereo partly drawn) [Cpd 100, 1-(2,4-difluoro-phenyl)-8-(3-fluoro-benzyl)-1,4,5,6,7,8-hexahydro-cycloheptapyrazole-3-carboxylic acid [(1R,2S)-2-hydroxy-indan-1-yl]-amide], the inhibition at 1 µM (CB1 receptor) was 31% and the “CB2 receptor binding percent inhibition” value (CB2 receptor) was 9%.

Work on `O=C(N[C@@H](CCl)Cc1ccccc1)c1nn(-c2nccc(C(F)(F)F)n2)c2c1CCCCC2Cc1cccc(Cl)c1` (stereo partly drawn) [Cpd 187, 8-(3-chloro-benzyl)-1-(4-trifluoromethyl-pyrimidin-2-yl)-1,4,5,6,7,8-hexahydro-cycloheptapyrazole-3-carboxylic acid [(1R)-1-benzyl-2-chloro-ethyl]-amide] yielded an inhibition at 0.2 µM (CB1 receptor) of 12% and an inhibition at 0.2 µM (CB2 receptor; [1]) of 23%.

In the case of `CCOC(=O)[C@H]1C2C=CC(C2)[C@H]1NC(=O)c1nn(C2CCCCC2)c2c1CCCCC2Cc1cccc(F)c1` (stereo partly drawn) [Cpd 74, (2S,3R)-3-{[1-cyclohexyl-8-(3-fluoro-benzyl)-1,4,5,6,7,8-hexahydro-cycloheptapyrazole-3-carbonyl]-amino}-bicyclo[2.2.1]hept-5-ene-2-carboxylic acid ethyl ester], the “CB1 receptor binding average percent inhibition” value (CB1 receptor; value shown is an average percent inhibition (footnote 5), concentration not given) is reported as “^(5)1%” and the “CB2 receptor binding percent inhibition” value (CB2 receptor) is reported as 10%.

Work on `O=C(NN1CCOCC1)c1nn(-c2ccncc2)c2c1CCCC/C2=C\c1ccc(Cl)cc1` [Cpd 183, (8E)-8-(4-chloro-benzylidene)-1-pyridin-4-yl-1,4,5,6,7,8-hexahydro-cycloheptapyrazole-3-carboxylic acid morpholin-4-ylamide] yielded an inhibition at 0.2 µM (CB1 receptor) of 0% and an inhibition at 0.2 µM (CB2 receptor; [1]) of 14%.

Work on `C[C@@H](NS(=O)(=O)C=Cc1n[nH]c2c1CCCCC2Cc1cccc(F)c1)c1ccccc1` (stereo partly drawn) [Cpd 235, 2-[8-(3-fluoro-benzyl)-1,4,5,6,7,8-hexahydro-cycloheptapyrazol-3-yl]-ethenesulfonic acid [(1R)-1-phenyl-ethyl]-amide] yielded an inhibition at 0.2 µM (CB1 receptor) of 0% and an inhibition at 0.2 µM (CB2 receptor; [1]) of 41%.

`O=C(Nc1ccncc1)c1nn(-c2ccc(Cl)cc2Cl)c2c1CCCC/C2=C\c1ccc(Cl)cc1` [Cpd 153, (8E)-8-(4-chloro-benzylidene)-1-(2,4-dichloro-phenyl)-1,4,5,6,7,8-hexahydro-cycloheptapyrazole-3-carboxylic acid pyridin-4-ylamide] showed an inhibition at 0.2 µM (CB1 receptor) of 44% and an inhibition at 0.2 µM (CB2 receptor; [1]) of 0%.

With `O=C(NC1CCC1)c1nn(Cc2ccc(Cl)cc2)c2c1CCCCC2Cc1cccc(Cl)c1` (stereo not shown) [Cpd 29, 1-(4-chloro-benzyl)-8-(3-chloro-benzyl)-1,4,5,6,7,8-hexahydro-cycloheptapyrazole-3-carboxylic acid cyclobutylamide] the inhibition at 1 µM (CB1 receptor) was 13% and the “CB2 receptor binding percent inhibition” value (CB2 receptor) was 18%.

With `C[C@@H](NC(=O)c1nn(-c2ccnc3cc(Cl)ccc23)c2c1CCCCC2Cc1cccc(Cl)c1)c1ccccc1` (stereo partly drawn) [Cpd 177, 8-(3-chloro-benzyl)-1-(7-chloro-quinolin-4-yl)-1,4,5,6,7,8-hexahydro-cycloheptapyrazole-3-carboxylic acid [(1R)-1-phenyl-ethyl]-amide] the inhibition at 0.2 µM (CB1 receptor) was 4% and the inhibition at 0.2 µM (CB2 receptor; [1]) was 27%.

`C[C@@H](NC(=O)c1nn(-c2ccncc2)c2c1CCCC/C2=C\c1ccc(Cl)cc1)C1CCCCC1` [Cpd 180, (8E)-8-(4-chloro-benzylidene)-1-pyridin-4-yl-1,4,5,6,7,8-hexahydro-cycloheptapyrazole-3-carboxylic acid [(1R)-1-cyclohexyl-ethyl]-amide] was tested, and the inhibition at 0.2 µM (CB1 receptor) was 40% and the inhibition at 0.2 µM (CB2 receptor; [1]) was 86%.

With `O=C(NC1CCC1)c1nn(C2CCCCC2)c2c1CCCCC2Cc1ccc(Cl)cc1` (stereo not shown) [Cpd 37, 8-(4-chloro-benzyl)-1-cyclohexyl-1,4,5,6,7,8-hexahydro-cycloheptapyrazole-3-carboxylic acid cyclobutylamide] the inhibition at 1 µM (CB1 receptor) was 15% and the “CB2 receptor binding percent inhibition” value (CB2 receptor) was 10%.

For `O=C(N[C@H](CO)c1ccccc1)c1nn(-c2ccc(F)cc2F)c2c1CCCCC2Cc1cccc(F)c1` (stereo partly drawn) [Cpd 168, 1-(2,4-difluoro-phenyl)-8-(3-fluoro-benzyl)-1,4,5,6,7,8-hexahydro-cycloheptapyrazole-3-carboxylic acid [(1S)-2-hydroxy-1-phenyl-ethyl]-amide], the inhibition at 0.2 µM (CB1 receptor) was 18% and the inhibition at 0.2 µM (CB2 receptor; [1]) was 11%.

For `CC12CCC(C1)C(C)(C)[C@H]2NC(=O)c1nn(C2CCCCC2)c2c1CCCCC2Cc1cccc(Cl)c1` (stereo partly drawn) [Cpd 4, 8-(3-chloro-benzyl)-1-cyclohexyl-1,4,5,6,7,8-hexahydro-cycloheptapyrazole-3-carboxylic acid [(2S)-1,3,3-trimethyl-bicyclo[2.2.1]hept-2-yl]-amide], the inhibition at 1 µM (CB1 receptor) was 51% and the “CB2 receptor binding percent inhibition” value (CB2 receptor) was 36%.

In the case of `O=C(c1nn(C2CCCCC2)c2c1CCCCC2Cc1ccc(F)cc1)N1CCN(c2ccccc2)CC1` (stereo not shown) [Cpd 60, [1-cyclohexyl-8-(4-fluoro-benzyl)-1,4,5,6,7,8-hexahydro-cycloheptapyrazol-3-yl]-(4-phenyl-piperazin-1-yl)-methanone], the inhibition at 1 µM (CB1 receptor) is reported as 38% and the “CB2 receptor binding percent inhibition” value (CB2 receptor) is reported as 38%.

In the case of `O=C(NC1C2CC3CC(C2)CC1C3)c1nn(-c2ccc(Cl)cc2Cl)c2c1CCCCC2Cc1cccc(Cl)c1` (stereo not shown) [Cpd 17, 8-(3-chloro-benzyl)-1-(2,4-dichloro-phenyl)-1,4,5,6,7,8-hexahydro-cycloheptapyrazole-3-carboxylic acid adamantan-2-ylamide], the inhibition at 1 µM (CB1 receptor) is reported as 37% and the “CB2 receptor binding percent inhibition” value (CB2 receptor) is reported as 11%.

Work on `C[C@H](NS(=O)(=O)/C=C/c1n[nH]c2c1CCCCC2Cc1cccc(Cl)c1)c1ccccc1` (stereo partly drawn) [Cpd 160, (2E)-2-[8-(3-chloro-benzyl)-1,4,5,6,7,8-hexahydro-cycloheptapyrazol-3-yl]-ethenesulfonic acid [(1S)-1-phenyl-ethyl]-amide] yielded an inhibition at 0.2 µM (CB1 receptor) of 2% and an inhibition at 0.2 µM (CB2 receptor; [1]) of 75%.

For `O=C(N[C@@H]1c2ccccc2C[C@@H]1O)c1nn(C2CCCCC2)c2c1CCCCC2Cc1cccc(F)c1` (single isomer, unassigned) [Cpd 115, (8S*)-1-cyclohexyl-8-(3-fluoro-benzyl)-1,4,5,6,7,8-hexahydro-cycloheptapyrazole-3-carboxylic acid [(1R,2S)-2-hydroxy-indan-1-yl]-amide], the IC50 (CB1 receptor; Cannabinoid CB1 Receptor Binding IC50, calculated by linear regression from percent inhibition at various test concentrations) was 500 nM, the inhibition at 0.5 µM (CB1 receptor; read-out: CB1 receptor binding percent inhibition, test concentration 0.5 μM (footnote 10)) was 67% and the “CB1 receptor binding percent inhibition” value (CB1 receptor; test concentration 1 μM (footnote 1), 1 µM) was 79%. The “CB2 receptor binding percent inhibition” value (CB2 receptor) was 99%.

In the case of `O=C(NC1CCC1)c1nn(C2CCCCC2)c2c1CCCCC2Cc1ccc(F)cc1` (stereo not shown) [Cpd 57, 1-cyclohexyl-8-(4-fluoro-benzyl)-1,4,5,6,7,8-hexahydro-cycloheptapyrazole-3-carboxylic acid cyclobutylamide], the inhibition at 1 µM (CB1 receptor) is reported as 35% and the “CB2 receptor binding percent inhibition” value (CB2 receptor) is reported as 29%.

With `CC12CCC(C1)C(C)(C)[C@H]2NC(=O)c1nn(-c2ccc(F)cc2F)c2c1CCCCC2Cc1ccc(F)cc1` (stereo partly drawn) [Cpd 97, 1-(2,4-difluoro-phenyl)-8-(4-fluoro-benzyl)-1,4,5,6,7,8-hexahydro-cycloheptapyrazole-3-carboxylic acid [(2S)-1,3,3-trimethyl-bicyclo[2.2.1]hept-2-yl]-amide] the inhibition at 1 µM (CB1 receptor) was 38%, the IC50 (CB2 receptor; Cannabinoid CB2 Receptor Binding IC50, calculated by linear regression from percent inhibition at various test concentrations) was 300 nM and the inhibition at 1 µM (CB2 receptor; read-out: CB2 receptor binding percent inhibition, test concentration 1 μM (footnote 1)) was 71%.

With `O=C(N[C@@H]1c2ccccc2C[C@@H]1O)c1nn(-c2ccc(F)cc2F)c2c1CCCCC2Cc1ccc(F)cc1` (stereo partly drawn) [Cpd 119, 1-(2,4-difluoro-phenyl)-8-(4-fluoro-benzyl)-1,4,5,6,7,8-hexahydro-cycloheptapyrazole-3-carboxylic acid [(1R,2S)-2-hydroxy-indan-1-yl]-amide] the inhibition at 1 µM (CB1 receptor) was 39% and the “CB2 receptor binding percent inhibition” value (CB2 receptor) was 38%.

In the case of `O=C(NC1CC1)c1nn(-c2ccc(Cl)cc2Cl)c2c1CCCCC2Cc1ccc(Cl)cc1` (stereo not shown) [Cpd 38, 8-(4-chloro-benzyl)-1-(2,4-dichloro-phenyl)-1,4,5,6,7,8-hexahydro-cycloheptapyrazole-3-carboxylic acid cyclopropylamide], the inhibition at 1 µM (CB1 receptor) is reported as 39% and the “CB2 receptor binding percent inhibition” value (CB2 receptor) is reported as 0%.
